Assay results published in US20030224074A1, “Composition for the protection and regeneration of nerve cells containing the extract of Scutellaria Radix” (EUGENBIO INC., priority 2001, published 2003).
Entries after “also recorded” stand apart in the source; their conditions may differ.

Key:
SH-SY5Y = assay: Neurite regeneration in human neuroblastoma SH-SY5Y; format: cell-based; conditions: extract 50 μg/ml, retinoic acid 50 μM
Protocol: Retinoic acid and NGF inducing neurite growth were used as positive control groups.
(§1) PC12 cells and SH-SY5Y cells were incubated in DMEM supplemented with 10% FBS. In order to differentiate the cells, NGF or retinoic acid was treated in a serum-free medium.
(§2) Retinoic acid (50 μM) and NGF (50 ng/ml) inducing neurite growth were used as positive controls.

PC12 cells = assay: Neurite regeneration and quantitative comparison of neurites in PC12 cell line; format: cell-based, rat; conditions: NGF 50 ng/ml, 3 days
Protocol: as §1, §2
Subsequently, the length of neurites in each group was measured.
2) Differentiation index was scored as follows: no neurite expression (0), the length of expressed neurites was less than the diameter of cell bodies (1), the length of expressed neurites was similar to the diameter of cell bodies (2), the length of expressed neurites was less than two times as long as the diameter of cell bodies (3), and the length of expressed neurites was more than two times as long as the diameter of cell bodies, or the expressed neurites form synapses together with other nerve cells (4). 200 differentiated cells from each microculture well were defined as one unit, and five units were statistically analyzed.

HiB5 cells = assay: Induction of differentiation of HiB5 neuronal stem cells (neurofilament immunostaining, confocal microscope); format: cell-based, white rat
Protocol: A positive control group was treated with bFGF to induce the differentiation into nerve cells.
Cell culture medium was prepared by adding a mixture of 10% FBS (fetal bovine serum), penicillin/streptomycin, glutamine and sodium pyruvate (0.11 g/L) to DMEM. On differentiating at 39 C, another cell culture medium was prepared by adding pyruvate to a serum-free medium (N2, containing DMEM/F12, insulin, transferrin, Putreseine and BSA; Botten Stein & Sato., 1979).
Tissue sections were fixed with 4% paraformaldehyde and cryosected to a thickness of […]. The cryosected tissue sections were stained with nerve cell- or astrocyte-labeled antibody and FITC-labeled secondary antibody before examining under a confocal microscope. In order to stain with nerve cell-labeled antibody, cultured cells were fixed with 4% paraformaldehyde for 20 minutes, permeated in 0.5% NP-40 for 5 minutes, and blocked using 1% BSA solution for 30 minutes. […]
The cultured cells were immunostained with nerve cell-specific labeled molecule, and then neurite growth was observed under a confocal microscope. […] The differentiation degree was measured by double-staining neurites with nerve cell-specific labeled molecule (anti-neurofilament antibody) and FITC-labeled secondary antibody (green), followed by staining cell nuclei with propidium iodide (red).

In the case of `CC1=C(/C=C/C(C)=C/C=C/C(C)=C/C(=O)O)C(C)(C)CCC1` [Retinoic acid], the “Average (%) of differentiated cells” value (SH-SY5Y) is reported as 81.59%.

“NGF: Nerve Growth Factor, positive control inducing neurite growth in PC12 cells” was tested, and the development of neurites (PC12 cells) was “development of neurites”.

In the case of “bFGF: basic fibroblast growth factor, positive control inducing differentiation of HiB5 cells into nerve cells”, the cell survival (HiB5 cells; bFGF 20 ng/ml) is reported as “increased” and the “differentiation into nerve cells” value (HiB5 cells; extract 50 μg/ml or bFGF 20 ng/ml) is reported as “induced the differentiation into nerve cells; also recorded: differentiated into nerve cells”.
